Measurements published in patent US9365556B2, “3,5-diaminopyrazole kinase inhibitors” (Axikin Pharmaceuticals, Inc., priority 2012, dated 2016).

What was measured:
[1] = molecular target: T1, kinase domain protein of RC kinase (Homo sapiens, UniProt Q56UN5); experiment: Enzymatic assay for kinase inhibitory activity (Crebtide substrate, LANCE read-out); type: biochemical; details: compound at 1 μM
T1 sequence (Q56UN5 1061-1324 limits assumed): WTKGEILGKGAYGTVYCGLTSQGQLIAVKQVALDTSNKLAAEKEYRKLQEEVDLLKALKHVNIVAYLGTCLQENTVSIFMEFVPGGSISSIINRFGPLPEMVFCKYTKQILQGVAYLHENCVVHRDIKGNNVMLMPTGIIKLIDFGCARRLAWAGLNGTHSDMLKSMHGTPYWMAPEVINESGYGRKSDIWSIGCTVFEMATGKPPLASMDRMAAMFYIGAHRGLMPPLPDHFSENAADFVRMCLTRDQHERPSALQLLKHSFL
Procedure, shortened: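 Compound tested at 1 μM final in HEPES/MgCl2/DTT buffer with 50 nM Crebtide and kinase domain at 1 μM ATP; full-length kinase at 3 μM ATP after 45 min preincubation. Reaction 45 min at room temperature, stopped with EDTA, read by LANCE TR-FRET (665/615 nm). Activity binned as % inhibition at 1 μM.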

SMILES | inhibition at 1 µM [1] | melting point
N#Cc1c(Nc2ccc(Cl)cc2)n[nH]c1/N=C/c1ccc(O)cc1 [Compound A32] | 5 to 20% | 286 to 288 °C
N#Cc1c(Nc2cccc(Cl)c2)n[nH]c1/N=C/c1ccc(Cl)cc1O [Compound A91] | ≤ 5% | 283 to 284 °C
COc1ccccc1/C=N/c1[nH]nc(Nc2cccc(Cl)c2)c1C#N [Compound A23] | 20 to 50% | 239 to 241 °C
N#Cc1c(Nc2cccnc2)n[nH]c1/N=C/c1ccc(O)cc1 [Compound A110] | 20 to 50% | 311 to 314 °C
CC(C)(C)c1ccc(Nc2n[nH]c(/N=C/c3ccc(Cl)cc3)c2C#N)cc1 [Compound A53] | 5 to 20% | 288 to 290 °C
N#Cc1c(Nc2cccc(Cl)c2)n[nH]c1/N=C/C1CCCN1C(=O)OCc1ccccc1 (stereo not drawn) [Compound A63] | 5 to 20% | 65 to 72 °C
COc1ccc(/C=N/c2[nH]nc(Nc3ccc(Cl)cc3)c2C#N)cc1 [Compound A33] | ≤ 5% | 290 to 291 °C
N#Cc1c(Nc2cccc(Cl)c2)n[nH]c1/N=C/c1c[nH]nc1-c1ccc(F)cc1 [Compound A1] | ≤ 5% | 127 to 132 °C
N#Cc1c(Nc2cccc(Cl)c2)n[nH]c1/N=C/c1ccc(OC(F)F)c(O)c1 [Compound A82] | ≤ 5% | 164 to 176 °C

Continued, values first:

inhibition at 1 µM [1] | melting point | SMILES
5 to 20% | 271 to 274 °C | COc1cccc(/C=N/c2[nH]nc(Nc3cccc(Cl)c3)c2C(N)=O)c1O [Compound B53]
≤ 5% | 307 to 309 °C | NC(=O)c1c(Nc2ccc(Cl)cc2)n[nH]c1/N=C/c1ccc(Cl)cc1 [Compound B24]
≤ 5% | 313 to 315 °C | COc1ccc(/C=N/c2[nH]nc(Nc3ccc(Cl)cc3)c2C(N)=O)cc1 [Compound B23]
5 to 20% | 295 to 297 °C | COc1ccc(C=Nc2[nH]nc(Nc3cccc(Cl)c3)c2C(N)=O)cc1 [Compound B3, 3-((3-chlorophenyl)amino)-5-((4-methoxybenzylidene)amino)-1H-pyrazole-4-carboxamide]
5 to 20% | 291 to 293 °C | NC(=O)c1c(Nc2ccc(Cl)cc2)n[nH]c1/N=C/c1ccc([N+](=O)[O-])cc1 [Compound B27]
5 to 20% | 267 to 270 °C | COc1ccc(/C=N/c2[nH]nc(Nc3ccccc3Cl)c2C(N)=O)c(O)c1 [Compound B119]
5 to 20% | 284 to 286 °C | NC(=O)c1c(Nc2cccc(Cl)c2)n[nH]c1/N=C/c1ccccc1O [Compound B54]
20 to 50% | 295 to 297 °C | NC(=O)c1c(Nc2ccc(Cl)cc2)n[nH]c1/N=C/c1ccc(O)c([N+](=O)[O-])c1 [Compound B22]
≥ 50% | 275 to 277 °C | NC(=O)c1c(Nc2ccccc2)n[nH]c1/N=C/c1ccc(O)c([N+](=O)[O-])c1 [Compound B9]
